According to ChEMBL document CHEMBL3994622, “Design and synthesis of new RAF kinase-inhibiting antiproliferative quinoline derivatives. Part 2: Diarylurea derivatives” (Eur J Med Chem, 2017):

Legend:
Assay type in all cases: functional
MDA-MB-468 [1] = experiment: Growth inhibition of human MDA-MB-468 cells assessed as cell growth at 1 uM incubated for 48 hrs by sulforhodamine B assay relative to control; conditions: MDA-MB-468, 48 h, read-out: Activity
HCT-15 = experiment: Growth inhibition of human HCT15 cells assessed as cell growth at 100 uM incubated for 48 hrs by sulforhodamine B assay relative to control; conditions: HCT-15, 48 h, read-out: Activity
K562 [2] = experiment: Growth inhibition of human K562 cells assessed as cell growth at 100 uM incubated for 48 hrs by sulforhodamine B assay relative to control; conditions: K562, 48 h, read-out: Activity
MDA-MB-468 [3] = experiment: Growth inhibition of human MDA-MB-468 cells assessed as cell growth at 10 uM incubated for 48 hrs by sulforhodamine B assay relative to control; conditions: MDA-MB-468, 48 h, read-out: Activity
MDA-MB-468 [4] = experiment: Growth inhibition of human MDA-MB-468 cells assessed as cell growth at 100 uM incubated for 48 hrs by sulforhodamine B assay relative to control; conditions: MDA-MB-468, 48 h, read-out: Activity
SK-OV-3 = experiment: Growth inhibition of human SKOV3 cells assessed as cell growth at 5 uM incubated for 48 hrs by sulforhodamine B assay relative to control; conditions: SK-OV-3, 48 h, read-out: Activity
HL-60(TB) = experiment: Growth inhibition of human HL-60(TB) cells assessed as cell growth at 50 uM incubated for 48 hrs by sulforhodamine B assay relative to control; conditions: HL-60, 48 h, read-out: Activity
HT-29 [5] = experiment: Growth inhibition of human HT-29 cells assessed as cell growth at 5 uM incubated for 48 hrs by sulforhodamine B assay relative to control; conditions: HT-29, 48 h, read-out: Activity
SF-539 [6] = experiment: Growth inhibition of human SF539 cells assessed as cell growth at 5 uM incubated for 48 hrs by sulforhodamine B assay relative to control; conditions: SF-539, 48 h, read-out: Activity
HOP-92 = experiment: Growth inhibition of human HOP92 cells assessed as cell growth at 0.005 uM incubated for 48 hrs by sulforhodamine B assay relative to control; conditions: HOP-92, 48 h, read-out: Activity
OVCAR-3 = experiment: Growth inhibition of human OVCAR3 cells assessed as cell growth at 0.05 uM incubated for 48 hrs by sulforhodamine B assay relative to control; conditions: OVCAR-3, 48 h, read-out: Activity
MDA-MB-435 = experiment: Growth inhibition of human MDA-MB-435 cells assessed as cell growth at 0.05 uM incubated for 48 hrs by sulforhodamine B assay relative to control; conditions: MDA-MB-435, 48 h, read-out: Activity
SF-268 = experiment: Growth inhibition of human SF268 cells assessed as cell growth at 5 uM incubated for 48 hrs by sulforhodamine B assay relative to control; conditions: SF-268, 48 h, read-out: Activity
K562 [7] = experiment: Growth inhibition of human K562 cells assessed as cell growth at 5 uM incubated for 48 hrs by sulforhodamine B assay relative to control; conditions: K562, 48 h, read-out: Activity
PC-3 = experiment: Growth inhibition of human PC3 cells assessed as cell growth at 0.05 uM incubated for 48 hrs by sulforhodamine B assay relative to control; conditions: PC-3, 48 h, read-out: Activity
SF-295 = experiment: Growth inhibition of human SF295 cells assessed as cell growth at 50 uM incubated for 48 hrs by sulforhodamine B assay relative to control; conditions: SF-295, 48 h, read-out: Activity
COLO 205 = experiment: Growth inhibition of human COLO205 cells assessed as cell growth at 5 uM incubated for 48 hrs by sulforhodamine B assay relative to control; conditions: COLO 205, 48 h, read-out: Activity
ACHN = experiment: Growth inhibition of human ACHN cells assessed as cell growth at 0.05 uM incubated for 48 hrs by sulforhodamine B assay relative to control; conditions: read-out: Activity
RPMI-8226 = experiment: Growth inhibition of human RPMI8226 cells assessed as cell growth at 0.005 uM incubated for 48 hrs by sulforhodamine B assay relative to control; conditions: RPMI-8226, 48 h, read-out: Activity
RXF 393 = experiment: Growth inhibition of human RXF393 cells assessed as cell growth at 0.05 uM incubated for 48 hrs by sulforhodamine B assay relative to control; conditions: RXF 393, 48 h, read-out: Activity
SK-MEL-28 = experiment: Growth inhibition of human SK-MEL-28 cells assessed as cell growth at 5 uM incubated for 48 hrs by sulforhodamine B assay relative to control; conditions: SK-MEL-28, 48 h, read-out: Activity
NCI-H522 = experiment: Growth inhibition of human NCI-H522 cells assessed as cell growth at 0.005 uM incubated for 48 hrs by sulforhodamine B assay relative to control; conditions: NCI-H522, 48 h, read-out: Activity
NCI-H460 = experiment: Growth inhibition of human NCI-H460 cells assessed as cell growth at 0.05 uM incubated for 48 hrs by sulforhodamine B assay relative to control; conditions: NCI-H460, 48 h, read-out: Activity
HOP-62 = experiment: Growth inhibition of human HOP62 cells assessed as cell growth at 5 uM incubated for 48 hrs by sulforhodamine B assay relative to control; conditions: HOP-62, 48 h, read-out: Activity
SF-539 [8] = experiment: Growth inhibition of human SF539 cells assessed as cell growth at 50 uM incubated for 48 hrs by sulforhodamine B assay relative to control; conditions: SF-539, 48 h, read-out: Activity
BT-549 = experiment: Growth inhibition of human BT549 cells assessed as cell growth at 50 uM incubated for 48 hrs by sulforhodamine B assay relative to control; conditions: BT-549, 48 h, read-out: Activity
TK-10 = experiment: Growth inhibition of human TK10 cells assessed as cell growth at 0.05 uM incubated for 48 hrs by sulforhodamine B assay relative to control; conditions: TK-10, 48 h, read-out: Activity
SN12C [9] = experiment: Growth inhibition of human SN12C cells assessed as cell growth at 0.05 uM incubated for 48 hrs by sulforhodamine B assay relative to control; conditions: read-out: Activity
HCT-116 = experiment: Growth inhibition of human HCT116 cells assessed as cell growth at 0.05 uM incubated for 48 hrs by sulforhodamine B assay relative to control; conditions: HCT-116, 48 h, read-out: Activity
SW-620 [10] = experiment: Growth inhibition of human SW620 cells assessed as cell growth at 0.05 uM incubated for 48 hrs by sulforhodamine B assay relative to control; conditions: SW-620, 48 h, read-out: Activity
SN12C [11] = experiment: Growth inhibition of human SN12C cells assessed as cell growth at 5 uM incubated for 48 hrs by sulforhodamine B assay relative to control; conditions: read-out: Activity
SW-620 [12] = experiment: Growth inhibition of human SW620 cells assessed as cell growth at 5 uM incubated for 48 hrs by sulforhodamine B assay relative to control; conditions: SW-620, 48 h, read-out: Activity
HT-29 [13] = experiment: Growth inhibition of human HT-29 cells assessed as cell growth at 0.05 uM incubated for 48 hrs by sulforhodamine B assay relative to control; conditions: HT-29, 48 h, read-out: Activity
IGROV-1 = experiment: Growth inhibition of human IGROV1 cells assessed as cell growth at 50 uM incubated for 48 hrs by sulforhodamine B assay relative to control; conditions: IGROV-1, 48 h, read-out: Activity

Which results are given for COc1cc2cc(Oc3ccc(NC(=O)Nc4cc(C(F)(F)F)cc(C(F)(F)F)c4)cc3)c(C)nc2cc1OC?
growth at 1 µM (MDA-MB-468 [1]): 53%; growth at 100 µM (HCT-15): -88%; growth at 100 µM (K562 [2]): -61%; growth at 10 µM (MDA-MB-468 [3]): -36%; growth at 100 µM (MDA-MB-468 [4]): -67%

What does the source list for COc1cc2cc(Oc3ccc(NC(=O)Nc4cccc(C(F)(F)F)c4)cc3)c(C)nc2cc1OC?
growth at 5 µM (SK-OV-3): 18%; growth at 50 µM (HL-60(TB)): -43%; growth at 5 µM (HT-29 [5]): 11%; growth at 5 µM (SF-539 [6]): 26%; growth at 0.005 µM (HOP-92): 96%; growth at 0.05 µM (OVCAR-3): 101%; growth at 0.05 µM (MDA-MB-435): 96%; growth at 5 µM (SF-268): 31%; growth at 5 µM (K562 [7]): 13%; growth at 0.05 µM (PC-3): 99%; growth at 50 µM (SF-295): -63%; growth at 5 µM (COLO 205): -48%; growth at 0.05 µM (ACHN): 99%; growth at 0.005 µM (RPMI-8226): 103%; growth at 0.05 µM (RXF 393): 105%; growth at 5 µM (SK-MEL-28): 21%; growth at 0.005 µM (NCI-H522): 86%; growth at 0.05 µM (NCI-H460): 106%; growth at 5 µM (HOP-62): 25%; growth at 50 µM (SF-539 [8]): -82%; growth at 50 µM (BT-549): -69%; growth at 0.05 µM (TK-10): 95%; growth at 0.05 µM (SN12C [9]): 97%; growth at 0.05 µM (HCT-116): 93%; growth at 0.05 µM (SW-620 [10]): 98%; growth at 5 µM (SN12C [11]): 22%; growth at 5 µM (SW-620 [12]): 20%; growth at 0.05 µM (HT-29 [13]): 100%; growth at 50 µM (IGROV-1): -14%
